Here are results for 2 molecules from patent publication US20230124589A1, “Ivacaftor Glycosides, Methods Of Making, And Uses Thereof In Treating Cystic Fibrosis” (DoubleRainbow Biosciences Inc., priority 2020, published 2023).

Data set [1] in a line: Water solubility (excess compound suspended in distilled water, supernatant measured by HPLC). Type of data set: physicochemical. Here is the method: The water solubility of ivacaftor and ivacaftor-17-O-D-glucoside was investigated by suspending excess amounts of the two compounds in 200 μl of distilled water in a microcentrifuge tube at 25° C. for 12 h. Afterwards, each sample was centrifuged at 12,000×g for 20 min. The supernatant of each sample was then filtered through a 0.45-μm membrane filter and the concentration of the compound in the supernatant, which is defined as the water-soluble component, was measured by its absorbance at 300 nm using HPLC, and its absolute solubility was calculated in reference to the concentration-absorbance standard curve.

The conditions of data set [2]: background statement, no method given; cited from earlier work.

The structures appear in SMILES notation. Values after ≈ are worked out from the molar mass of the structure shown. A value given as a limit tells only on which side of the number the result lay.

Consider `CC(C)(C)c1cc(C(C)(C)C)c(OC2O[C@H](CO)[C@@H](O)[C@H](O)[C@H]2O)cc1NC(=O)c1c[nH]c2ccccc2c1=O` (stereo partly drawn) [ivacaftor-17-O-D-glucoside], for which the “water solubility, times higher than ivacaftor” value in data set [1] (distilled water, 25° C., 12 h, relative to ivacaftor) was 14,550 times. Further, the water solubility in data set [1] (distilled water, 25° C., 12 h, supernatant filtered 0.45-μm, absorbance at 300 nm by HPLC) is 1,455 mg/L.

What is called solubility is the concentration that dissolves in the medium under given conditions. High values mean a readily soluble substance, low ones a poorly soluble substance. In turn, `CC(C)(C)c1cc(C(C)(C)C)c(NC(=O)c2c[nH]c3ccccc3c2=O)cc1O` [ivacaftor, Ivacaftor] gave a solubility at 12 h in data set [1] (25 °C, water, thermodynamic from solid) of 0.1 µg/mL (≈ 0.255 µM). The solubility in water in data set [2] was less than 1 µg/mL.
